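Assay format: 96-well plates, 48-hour exposure. Abbreviation: GI50, concentration required for 50% inhibition of growth. TGI: concentration producing complete growth inhibition.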

In PubChem BioAssay (NCI) one finds GI50 and TGI data, which are given here for ten compounds.

Test systems include CAKI-1 renal; NCI-H226 lung; HCC-2998 colon; SR leukemia; RPMI-8226 leukemia; SK-MEL-28 melanoma; SF-268 CNS; HCT-15 colon; CCRF-CEM leukemia; OVCAR-4 ovarian.
Common to all, as to assay: DTP human tumour cell line panel, 48 h

Take `CO[C@]12C=C/C(=C(/C(=O)OCc3cccnc3)C(=O)CCCCCCCC[C@@]3(OC)C=C/C(=C(/C(=O)OCc4cccnc4)C(=O)CCCCCCCC1)O3)O2`: the GI50 was 1.89 µM with CAKI-1 renal; 1.02 µM with NCI-H226 lung; 0.979 µM in the test on HCC-2998 colon; 1.12 µM in the test on SR leukemia; 1.09 µM in the test on RPMI-8226 leukemia; 1.37 µM in the test on SK-MEL-28 melanoma. Moreover, the GI50 with SF-268 CNS was 1.47 µM; in the test on HCT-15 colon, 1.04 µM; in the test with CCRF-CEM leukemia, 0.741 µM. The TGI with CAKI-1 renal is over 50 µM; with NCI-H226 lung, 1.94 µM; in the test with HCC-2998 colon, 1.84 µM; in the test with SR leukemia, over 50 µM; with RPMI-8226 leukemia, 5.87 µM; in the test with SK-MEL-28 melanoma, 6.45 µM. Further, the values for the concentration for total growth inhibition (TGI) with SF-268 CNS, with HCT-15 colon and in the test with CCRF-CEM leukemia were 6.53 µM, 2.82 µM and 7.8 µM, respectively.

In the case of `COc1ccc2c(Cc3c4ccccc4cc4ccccc34)cncc2c1O`, the concentration for total growth inhibition (TGI) in the test with CAKI-1 renal is 36.3 µM; with NCI-H226 lung, 11.7 µM; with SR leukemia, 0.551 µM; with RPMI-8226 leukemia, 17 µM; in the test on OVCAR-4 ovarian, over 74.2 µM; with SK-MEL-28 melanoma, 72.3 µM. The TGI in the test with SF-268 CNS is over 100 µM; with HCT-15 colon, over 22 µM; with CCRF-CEM leukemia it was 3.04 µM.

Consider `C/C(=N\NS(=O)(=O)c1ccc(C)cc1)c1cc2ccccc2n1C`, for which the TGI in the test on HCC-2998 colon, in the test on SR leukemia, in the test with RPMI-8226 leukemia, in the test with OVCAR-4 ovarian, with SF-268 CNS and with HCT-15 colon was over 100 µM each time. Moreover, the TGI with CCRF-CEM leukemia was over 100 µM.

For the compound `COc1cc(/C=C2\Oc3cc(OCCCN4CCCC4)ccc3C2=O)cc(OC)c1`, the GI50 in the test on CAKI-1 renal was 3.54 µM; in the test on NCI-H226 lung, 13.8 µM; in the test with HCC-2998 colon, 3.91 µM; with SR leukemia it was 1.82 µM; in the test with OVCAR-4 ovarian, 7.16 µM; in the test on SK-MEL-28 melanoma, 4.12 µM. Moreover, the GI50 in the test on SF-268 CNS was 6.1 µM; in the test on HCT-15 colon, 2.84 µM; in the test on CCRF-CEM leukemia, 2.76 µM. In addition, the TGI in the test on CAKI-1 renal was found to be 16.4 µM; in the test with NCI-H226 lung it was 27 µM; in the test with HCC-2998 colon it was 15 µM; with SR leukemia it was 5.04 µM; with OVCAR-4 ovarian, 19.8 µM; in the test on SK-MEL-28 melanoma, 16 µM. In addition, the total growth inhibition concentration (TGI) in the test on SF-268 CNS was 23.9 µM; with HCT-15 colon it was 12.3 µM; in the test on CCRF-CEM leukemia, 10.4 µM.

As to `CCOC(=O)C1=C(C)N(Cc2ccccc2)C(=O)C1CC#N` (configuration not stated), the concentration for total growth inhibition (TGI) in the test on CAKI-1 renal, in the test on HCC-2998 colon, with SR leukemia, in the test on RPMI-8226 leukemia, in the test on OVCAR-4 ovarian and in the test on SK-MEL-28 melanoma was over 100 µM in each case. Further, the TGI in the test with HCT-15 colon and with CCRF-CEM leukemia was over 100 µM throughout.

Take `O=S1(=O)NC2CCC3NS(=O)(=O)NC4CCC(N1)N4S(=O)(=O)N23` (configuration not stated): the TGI in the test with CAKI-1 renal, in the test with NCI-H226 lung, in the test on HCC-2998 colon, in the test on SR leukemia, in the test on RPMI-8226 leukemia and in the test on OVCAR-4 ovarian was over 100 µM in each case. Further, the TGI with SK-MEL-28 melanoma, in the test with SF-268 CNS and in the test with HCT-15 colon was over 100 µM throughout.

Consider `Cc1ccc(NC(=O)CC/C(CC(=O)C(C)(C)C)=N/NC(=O)C[N+](C)(C)C)cc1C`, for which the concentration for total growth inhibition (TGI) in the test on CAKI-1 renal, in the test with NCI-H226 lung, with HCC-2998 colon, in the test with SR leukemia, with OVCAR-4 ovarian and in the test on SK-MEL-28 melanoma was over 100 µM each time. Further, the concentration for total growth inhibition (TGI) in the test with SF-268 CNS, with HCT-15 colon and in the test with CCRF-CEM leukemia was over 100 µM in each case.

On to `C=C1CC[C@@H]2[C@](C)(COC(C)=O)[C@H](OC(C)=O)CC[C@@]2(C)[C@@H]1CC(Nc1ccc(S(=O)(=O)Nc2cc(C)on2)cc1)C1=CCOC1=O` (some centres not stated), for which the GI50 in the test on CAKI-1 renal was 4.14 µM; with HCC-2998 colon it was 2.14 µM; in the test with SR leukemia, 0.375 µM; in the test on RPMI-8226 leukemia, 1.54 µM; in the test on OVCAR-4 ovarian, 2.91 µM; with SK-MEL-28 melanoma, 2.02 µM. The GI50 with SF-268 CNS is 2.35 µM; in the test on HCT-15 colon, 1.5 µM; in the test with CCRF-CEM leukemia it was 0.477 µM. Moreover, the TGI is 14.7 µM in the test on CAKI-1 renal; 4.05 µM in the test on HCC-2998 colon; 3.36 µM with SR leukemia; 5.43 µM in the test with RPMI-8226 leukemia; 10.5 µM in the test on OVCAR-4 ovarian; 4.31 µM in the test on SK-MEL-28 melanoma. The TGI was determined as 6.11 µM in the test on SF-268 CNS, 3.83 µM in the test with HCT-15 colon and 2.71 µM in the test with CCRF-CEM leukemia.

Regarding `Nc1ccccc1NC(=O)c1ccc(CN2CCC/C(=C\c3ccccn3)C2=O)cc1`, the GI50 in the test with CAKI-1 renal is 1.41 µM; in the test with NCI-H226 lung, 2.62 µM; in the test on HCC-2998 colon it was 1.86 µM; with SR leukemia, 0.47 µM; in the test with RPMI-8226 leukemia it was 0.686 µM; in the test on OVCAR-4 ovarian it was 2.66 µM. The GI50 is 2.96 µM in the test on SF-268 CNS, 1.11 µM in the test on HCT-15 colon and 0.645 µM in the test on CCRF-CEM leukemia. Besides, the TGI is 9.19 µM in the test with CAKI-1 renal; 9.59 µM in the test on NCI-H226 lung; 20.2 µM in the test on HCC-2998 colon; over 100 µM with SR leukemia; 5.66 µM with RPMI-8226 leukemia; over 100 µM with OVCAR-4 ovarian. Also, the TGI in the test on SF-268 CNS was 13 µM; with HCT-15 colon, over 100 µM; in the test on CCRF-CEM leukemia, over 100 µM.

In the case of `O=[N+]([O-])c1ccc(Sc2nc(Cl)nc(NC3CCCC3)n2)cc1`, the GI50 with CAKI-1 renal was 3.9 µM; in the test with NCI-H226 lung, over 10 µM; with HCC-2998 colon it was over 10 µM; with SR leukemia, over 10 µM; in the test on RPMI-8226 leukemia it was over 10 µM; in the test on OVCAR-4 ovarian, over 10 µM. The values for the GI50 in the test with SK-MEL-28 melanoma, with SF-268 CNS and with HCT-15 colon were 7 µM, over 10 µM and over 10 µM, respectively. For the same compound, the TGI with CAKI-1 renal, with NCI-H226 lung, in the test with HCC-2998 colon, in the test with SR leukemia, in the test on RPMI-8226 leukemia and in the test on OVCAR-4 ovarian was over 10 µM in each case. Further, the concentration for total growth inhibition (TGI) with SK-MEL-28 melanoma, in the test on SF-268 CNS and in the test with HCT-15 colon was over 10 µM each time.

The GI50 is the concentration giving 50% growth inhibition. The term TGI denotes the concentration giving total growth inhibition.
